Laboratory results: PubChem BioAssay (NCI)
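Interpolation was linear, between the two tested concentrations surrounding the appropriate level; five concentrations were tested over 48 hours in 96-well plates. GI50: concentration for 50% inhibition of growth. TGI is the concentration that stops growth completely.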

Columns and labels:
Test in all cases: NCI tumour cell line growth inhibition, 48 h; in the data active means GI50 below about 0.43 µM; inactive means the rest
786-0 renal = tested on: 786-0 renal
A498 renal = tested on: A498 renal
A549 NSCLC = tested on: A549 NSCLC
ACHN renal = tested on: ACHN renal
BT-549 breast = tested on: BT-549 breast
CAKI-1 renal = tested on: CAKI-1 renal
CCRF-CEM leukemia = tested on: CCRF-CEM leukemia
COLO 205 colon = tested on: COLO 205 colon
DU-145 prostate = tested on: DU-145 prostate
EKVX NSCLC = tested on: EKVX NSCLC
HCC-2998 colon = tested on: HCC-2998 colon
HCT-116 colon = tested on: HCT-116 colon
HCT-15 colon = tested on: HCT-15 colon
HL-60(TB) leukemia = tested on: HL-60(TB) leukemia
HOP-62 NSCLC = tested on: HOP-62 NSCLC
HOP-92 NSCLC = tested on: HOP-92 NSCLC
HS 578T breast = tested on: HS 578T breast
HT29 colon = tested on: HT29 colon
IGROV1 ovarian = tested on: IGROV1 ovarian
K-562 leukemia = tested on: K-562 leukemia
KM12 colon = tested on: KM12 colon
LOX IMVI melanoma = tested on: LOX IMVI melanoma
M14 melanoma = tested on: M14 melanoma
MALME-3M melanoma = tested on: MALME-3M melanoma
MCF7 breast = tested on: MCF7 breast
MDA-MB-231 breast = tested on: MDA-MB-231 breast
MDA-MB-435 = tested on: MDA-MB-435
MOLT-4 leukemia = tested on: MOLT-4 leukemia
NCI-H226 lung = tested on: NCI-H226 lung
NCI-H23 lung = tested on: NCI-H23 lung
NCI-H460 lung = tested on: NCI-H460 lung
NCI-H522 lung = tested on: NCI-H522 lung
NCI/ADR-RES ovarian = tested on: NCI/ADR-RES ovarian
OVCAR-3 ovarian = tested on: OVCAR-3 ovarian
OVCAR-4 ovarian = tested on: OVCAR-4 ovarian
OVCAR-5 ovarian = tested on: OVCAR-5 ovarian
OVCAR-8 ovarian = tested on: OVCAR-8 ovarian
PC-3 prostate = tested on: PC-3 prostate
RPMI-8226 leukemia = tested on: RPMI-8226 leukemia
RXF 393 renal = tested on: RXF 393 renal
SF-268 CNS = tested on: SF-268 CNS
SF-295 CNS = tested on: SF-295 CNS
SF-539 CNS = tested on: SF-539 CNS
SK-MEL-2 melanoma = tested on: SK-MEL-2 melanoma
SK-MEL-28 melanoma = tested on: SK-MEL-28 melanoma
SK-MEL-5 melanoma = tested on: SK-MEL-5 melanoma
SK-OV-3 ovarian = tested on: SK-OV-3 ovarian
SN12C renal = tested on: SN12C renal
SNB-19 CNS = tested on: SNB-19 CNS
SNB-75 CNS = tested on: SNB-75 CNS
SR leukemia = tested on: SR leukemia
SW-620 colon = tested on: SW-620 colon
T-47D breast = tested on: T-47D breast
TK-10 renal = tested on: TK-10 renal
U251 CNS = tested on: U251 CNS
UACC-257 melanoma = tested on: UACC-257 melanoma
UACC-62 melanoma = tested on: UACC-62 melanoma
UO-31 renal = tested on: UO-31 renal

C#CCn1cccc1CNc1ccc(OC)cc1
> 100 µM: TGI (786-0 renal) | TGI (A498 renal) | TGI (A549 NSCLC) | TGI (ACHN renal) | TGI (BT-549 breast) | TGI (CAKI-1 renal) | TGI (CCRF-CEM leukemia) | TGI (COLO 205 colon) | TGI (DU-145 prostate) | TGI (EKVX NSCLC) | TGI (HCC-2998 colon) | TGI (HCT-116 colon) | TGI (HCT-15 colon) | TGI (HL-60(TB) leukemia) | TGI (HOP-62 NSCLC) | TGI (HOP-92 NSCLC) | TGI (HS 578T breast) | TGI (HT29 colon) | TGI (IGROV1 ovarian) | TGI (K-562 leukemia) | TGI (KM12 colon) | TGI (LOX IMVI melanoma) | TGI (M14 melanoma) | TGI (MALME-3M melanoma) | TGI (MCF7 breast) | TGI (MDA-MB-231 breast) | TGI (MDA-MB-435) | TGI (MOLT-4 leukemia) | TGI (NCI-H226 lung) | TGI (NCI-H23 lung) | TGI (NCI-H460 lung) | TGI (NCI-H522 lung) | TGI (NCI/ADR-RES ovarian) | TGI (OVCAR-3 ovarian) | TGI (OVCAR-4 ovarian) | TGI (OVCAR-5 ovarian) | TGI (OVCAR-8 ovarian) | TGI (PC-3 prostate) | TGI (RPMI-8226 leukemia) | TGI (RXF 393 renal) | TGI (SF-268 CNS) | TGI (SF-295 CNS) | TGI (SF-539 CNS) | TGI (SK-MEL-2 melanoma) | TGI (SK-MEL-28 melanoma) | TGI (SK-MEL-5 melanoma) | TGI (SK-OV-3 ovarian) | TGI (SN12C renal) | TGI (SNB-19 CNS) | TGI (SNB-75 CNS) | TGI (SR leukemia) | TGI (SW-620 colon) | TGI (T-47D breast) | TGI (TK-10 renal) | TGI (U251 CNS) | TGI (UACC-257 melanoma) | TGI (UACC-62 melanoma) | TGI (UO-31 renal)
inactive: GI50 (786-0 renal) > 100 µM | GI50 (A498 renal) 8.54 µM | GI50 (A549 NSCLC) > 100 µM | GI50 (ACHN renal) 97.2 µM | GI50 (BT-549 breast) 57 µM | GI50 (CAKI-1 renal) 50 µM | GI50 (CCRF-CEM leukemia) 41 µM | GI50 (COLO 205 colon) > 100 µM | GI50 (DU-145 prostate) > 100 µM | GI50 (EKVX NSCLC) 25.5 µM | GI50 (HCC-2998 colon) > 100 µM | GI50 (HCT-116 colon) 75.7 µM | GI50 (HCT-15 colon) > 100 µM | GI50 (HL-60(TB) leukemia) 34.6 µM | GI50 (HOP-62 NSCLC) > 100 µM | GI50 (HOP-92 NSCLC) 2940 nM | GI50 (HS 578T breast) > 100 µM | GI50 (HT29 colon) > 100 µM | GI50 (IGROV1 ovarian) 53.7 µM | GI50 (K-562 leukemia) 44.6 µM | GI50 (KM12 colon) 51.7 µM | GI50 (LOX IMVI melanoma) 56.9 µM | GI50 (M14 melanoma) 82 µM | GI50 (MALME-3M melanoma) > 100 µM | GI50 (MCF7 breast) 79.6 µM | GI50 (MDA-MB-231 breast) > 100 µM | GI50 (MDA-MB-435) 78.9 µM | GI50 (MOLT-4 leukemia) > 100 µM | GI50 (NCI-H226 lung) > 100 µM | GI50 (NCI-H23 lung) 46.4 µM | GI50 (NCI-H460 lung) > 100 µM | GI50 (NCI-H522 lung) 41.6 µM | GI50 (NCI/ADR-RES ovarian) > 100 µM | GI50 (OVCAR-3 ovarian) 64.4 µM | GI50 (OVCAR-4 ovarian) 28.7 µM | GI50 (OVCAR-5 ovarian) > 100 µM | GI50 (OVCAR-8 ovarian) > 100 µM | GI50 (PC-3 prostate) 16 µM | GI50 (RPMI-8226 leukemia) 25 µM | GI50 (RXF 393 renal) > 100 µM | GI50 (SF-268 CNS) > 100 µM | GI50 (SF-295 CNS) > 100 µM | GI50 (SF-539 CNS) > 100 µM | GI50 (SK-MEL-2 melanoma) > 100 µM | GI50 (SK-MEL-28 melanoma) > 100 µM | GI50 (SK-MEL-5 melanoma) 67.8 µM | GI50 (SK-OV-3 ovarian) > 100 µM | GI50 (SN12C renal) > 100 µM | GI50 (SNB-19 CNS) > 100 µM | GI50 (SNB-75 CNS) > 100 µM | GI50 (SR leukemia) > 100 µM | GI50 (SW-620 colon) > 100 µM | GI50 (T-47D breast) 37.8 µM | GI50 (TK-10 renal) > 100 µM | GI50 (U251 CNS) > 100 µM | GI50 (UACC-257 melanoma) 45.5 µM | GI50 (UACC-62 melanoma) 74.1 µM | GI50 (UO-31 renal) 39.1 µM
